This passage reports IC50 results from ChEMBL document CHEMBL3867458, “Chiral Separation of Cytotoxic Flavan Derivatives from Daphne giraldii” (J Nat Prod, 2016).

Structures are written as SMILES.

Assay [1] is described as follows: Cytotoxicity activity against human MCF7 cells assessed as growth inhibition measured after 48 hrs by MTT assay. Format: functional, cell-based. Conditions: MCF7, 48 h.
Assay [2] can be described thus: Cytotoxicity activity against human A549 cells assessed as growth inhibition measured after 48 hrs by MTT assay. The format is functional, cell-based. Particulars: A549, 48 h. Background: Formazan colour is commonly taken as a measure of viable cells.

Turning to `CC(=O)O[C@H]1C(=O)[C@@]2(C)[C@H]([C@H](OC(=O)c3ccccc3)[C@]3(O)C[C@H](OC(=O)[C@H](O)[C@@H](NC(=O)c4ccccc4)c4ccccc4)C(C)=C1C3(C)C)[C@]1(OC(C)=O)CO[C@@H]1C[C@@H]2O` [PACLITAXEL], the IC50 (in general, the concentration that gives 50% inhibition) in assay [1] was 60 nM; in assay [2], 30 nM.
